How the values were obtained:
[1] = tested on: Methicillin Resistant Staphylococcus aureus MRSA USA300; experiment: In-vitro agar well diffusion, zone of bacterial growth inhibition; assay type: cell-based
Description: All challenge inoculum suspensions were prepared by swabbing a 3-cm diameter area of the growth from a culture plate into 4.5 ml of sterile phosphate buffer solution (PBS). […] The concentration was confirmed using historical optical density measurements. […] Concentrations of 10^4 CFU/ml for each bacteria was tested in this study.
Three (3) plates of Tryptic soy agar with 5% sheep blood (TSAII) per treatment for each bacteria was challenged with 100 μl of each inoculum 10^4 CFU/ml (MRSA USA300 or PA27312).
Inoculums were spread around each plate using 3 mm sterile glass beads.
Three (10 mm) punch biopsies were made on all inoculated TSAII blood culture media plates and those biopsies were removed with a sterile spatula to create wells on each plate.
Approximately 150-200 μl of each treatment was placed in the well of the inoculated TSA II plates. […] Negative Control Petrolatum or Sterile PBS.
Treatments were allowed to diffuse into agar for approximately 2-3 hours at room temperature prior to incubating plates for 24 hours at 37° C.
After the incubation period, the zones of bacteria growth inhibition (if any) were measured using ImageJ 1.4lo software.
IBM SSPS Statistics Version 26 with ANOVA statistical analysis was used to determine any differences between treatments.

[2] = Solubility in anhydrous lipophilic oil composition
[3] = average of 9 wells, 10^4 CFU/ml
[4] = average of 9 wells, 10^4 CFU/ml, ImageJ area

Structure (SMILES): C/C(=C\C(=O)OCCCCCCCCC(=O)O)C[C@@H]1OC[C@H](C[C@@H]2O[C@H]2[C@@H](C)[C@H](C)O)[C@@H](O)[C@H]1O [Mupirocin]
- zone of inhibition, comparison in words ([1]; MRSA USA300): largest zone of inhibition
- Average Inhition in cm2 [1, 3]: 42.81 cm2
- Diameter cm (of average inhibition zone) [1, 3]: 7.3849 cm
- Average Inhibition Zone vs Each disk [1, 4]: 244618.78
- Average Inhibition Zone vs disk average [1, 4]: 244618.78
- areas of inhibition zones ([1]; mean ± spread, 10^4 CFU/ml MRSA USA300): 42.81±0.29 cm^2

Structure (SMILES): CCCCCCCCCCCC(=O)OCC(O)CO (stereo not shown) [monolaurin, glycerol monolaurate]
- inherent solubility in an oil [2]: less than or equal to 0.6%
